The first experiment concerns the target T1, LasR (Pseudomonas aeruginosa, UniProt P25084).
T1 construct: expressed in transfected cells; host or cells: E. coli JLD271
Kind of experiment: E. coli reporter gene primary antagonism assay, LasR. It is filed as cell-based. The following applies: compounds at 100 mm against 2 nm OdDHL; E. coli beta-galactosidase reporter strain JLD271/pJN105L/pSC11; untreated culture = 100%; negative values indicate receptor agonism; error ±10%. On the procedure: (§1) Percent agonism of a given non-native inducer in a given bacterium and QS system receptor is measured with resepct to the maximum level of agonism (activation) by the native ligand of that receptor in the given bacterium. Percent antagonism is measured in competitive assays. The QS system of interest is activated to 100% with added or endogenous native ligand and the % antagonism of the non-native inducer is assessed with respect to 100% activation by the native inducer. The native ligand which induces LasR is OdDHL, which induces RhlR is BHL and which induces PqsR is PQS. As described herein and in cited references, assays for assessment of % agonism or % atangonism may be performed in E. coli systems (heterologous) or in the bacterium of interest, e.g., Pseudomonas. Dependent upon the assay system employed native ligand may be endogenously present or it may be exogenously supplied to the assay system. […] In antagonism assays using the native strains with functional QS systems, e.g., those of P. aeruginosa, endogenous native ligand is made in the system, so no native ligand is added. In native strains having one or more non-functional QS systems (mutant strains), e.g., P. aeruginosa mutants with non-functional QS systems, native ligand is added at about 10-100× the EC50 of the native ligand. In the agonism assay, native ligand is added as a control. Details of the assays are provided herein in Example 9 and in references cited in Example 9.
Background: A reporter such as luciferase makes a cellular process visible.
QscR, sequence (G3XD77 entry or part of it): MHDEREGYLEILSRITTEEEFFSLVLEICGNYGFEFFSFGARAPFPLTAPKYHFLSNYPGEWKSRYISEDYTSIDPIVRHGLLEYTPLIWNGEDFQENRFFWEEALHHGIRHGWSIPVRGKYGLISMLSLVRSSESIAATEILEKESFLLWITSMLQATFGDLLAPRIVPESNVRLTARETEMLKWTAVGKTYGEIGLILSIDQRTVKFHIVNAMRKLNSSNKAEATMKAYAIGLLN
T2 sequence (P54292 whole entry): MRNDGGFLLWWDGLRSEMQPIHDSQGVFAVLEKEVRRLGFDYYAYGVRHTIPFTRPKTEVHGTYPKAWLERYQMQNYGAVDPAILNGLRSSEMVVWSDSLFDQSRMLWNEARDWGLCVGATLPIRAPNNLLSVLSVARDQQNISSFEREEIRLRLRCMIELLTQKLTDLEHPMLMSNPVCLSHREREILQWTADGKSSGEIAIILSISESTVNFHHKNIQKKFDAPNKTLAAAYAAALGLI
T1 sequence (P25084 whole entry): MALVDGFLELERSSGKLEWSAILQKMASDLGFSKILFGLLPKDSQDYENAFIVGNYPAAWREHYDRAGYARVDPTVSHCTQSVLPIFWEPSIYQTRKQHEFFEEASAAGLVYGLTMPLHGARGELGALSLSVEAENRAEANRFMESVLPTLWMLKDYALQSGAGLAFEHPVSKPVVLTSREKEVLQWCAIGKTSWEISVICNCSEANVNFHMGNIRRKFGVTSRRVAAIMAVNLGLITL
Turning to `O=C(Cc1ccc(Cl)c(Cl)c1)N[C@H]1CCOC1=O` [E11], the “Inhibition [%] LasR” value amounted to 28%.

For the molecule `COc1ccc(OCC(=O)N[C@H]2CCOC2=O)cc1` [E17], the “Inhibition [%] LasR” value amounted to 83%.

For `O=C(Cc1c(F)c(F)c(F)c(F)c1F)N[C@H]1CCOC1=O` [C16], the “Inhibition [%] LasR” value worked out at 76%.

Consider `O=C(Cc1ccc(Br)cc1)N[C@@H]1CCOC1=O` [B4], for which the “Inhibition [%] LasR” value worked out at 15%.

Regarding `Cc1ccc(CC(=O)N[C@H]2CCOC2=O)cc1` [C19], the “Inhibition [%] LasR” value amounted to 81%.

With `O=C(Cc1ccc(C(F)(F)F)cc1)N[C@H]1CCOC1=O` [C20], the “Inhibition [%] LasR” value stood at 93%.

Turning to `O=C(Cc1ccc(I)cc1)N[C@H]1CCOC1=O` [C10], the “Inhibition [%] LasR” value is on record as 58%.

Turning to `O=C(Cc1ccc(SC(F)(F)F)cc1)N[C@H]1CCOC1=O` [E8], the “Inhibition [%] LasR” value is recorded as 23%.

Turning to `CSc1ccc(CC(=O)N[C@H]2CCOC2=O)cc1` [E6], the “Inhibition [%] LasR” value is recorded as 85%.

Regarding `CSc1ccc(CCC(=O)N[C@H]2CCOC2=O)cc1` [E34], the “Inhibition [%] LasR” value is −52%.

For the molecule `O=C(Cc1ccc([N+](=O)[O-])cc1)N[C@H]1CCOC1=O` [C13], the “Inhibition [%] LasR” value is 91%.

For the molecule `Cc1ccc(OCC(=O)N[C@H]2CCOC2=O)cc1` [E15], the “Inhibition [%] LasR” value came out at 84%.

Consider `O=C(COc1ccc(C(F)(F)F)cc1)N[C@H]1CCOC1=O` [E23], for which the “Inhibition [%] LasR” value is recorded as −49%.

Take `O=C(COc1ccc(Br)cc1)N[C@H]1CCOC1=O` [E21]: the “Inhibition [%] LasR” value is 31%.

On to `O=C(COc1ccc(OC(F)(F)F)cc1)N[C@H]1CCOC1=O` [D15], for which the “Inhibition [%] LasR” value is −80%.

Regarding `O=C(Cc1ccc2ccccc2c1)N[C@H]1CCOC1=O` [E12], the “Inhibition [%] LasR” value is reported as 81%.

For the molecule `O=C(CCCC1CCCCC1)N[C@H]1CCOC1=O` [S6], the “Inhibition [%] LasR” value is on record as 56%.

A further experiment addresses QscR (Pseudomonas aeruginosa, UniProt G3XD77).
Assay: not given
The following applies: compounds at 100 mm against 15 nm OdDHL; E. coli reporter strain JLD271/pJN105Q/pSC11-Q; untreated culture = 100%; error ±10%. It is filed as cell-based. Also noted: expressed in transfected cells; host or cells: E. coli JLD271. The source says: Construction of pSC11-Q: A 348 bp fragment spanning the upstream region of PA1897 (¢304 to +43 relative to the PA1897 translationalstart codon) was amplified from plasmid pJL101*by using primers 5′-GAATAT GGATCC TCTCTC CGCAGA TACCTG-3′ (BamHI site underlined) SEQ ID NO:5 and 5′-GCTATT GAATTC TGAAGA TGAATA GCGCCAC-3′ (EcoRI site underlined) SEQ ID NO:6. The PCR-generated fragment was digested with EcoRI and BamHI and subsequently ligated into EcoRI/BamHI-digested pPROBE-KT to generate pPROBE-KQ2. […] CGCC-3′ (BamHI site underlined) SEQ ID NO:8. The PCR-generated fragment was digested with SalI and BamHI and subsequently ligated into SalI/BamHI-digested pSC11 to generate pSC11-Q.
E. coli reporter gene assays: Primary assays for RhlR, LasR, and QscR activity in E. coli JLD271 reporter (beta-galactosidase) strains were performed as reported by Welsh et al. 2015, with the following modifications:
For all primary and dose-response antagonism assays, the concentration of native ligand utilized was approximately equal to its EC50 value in each bacterial reporter strain. For RhlR, LasR, and QscR primary antagonism assays, synthetic ligand (100 mm) was screened against BHL (10 mm), OdDHL (2 nm), and OdDHL (15 nm), respectively. For RhlR, LasR, and QscR primary agonism assays, synthetic compound (100 mm) was screened alongside and compared to the natural ligand (900 mm BHL or 100 mm OdDHL) for the receptor. As part of the beta-galactosidase assay protocol, plates to which CPRG substrate had been added were incubated at either 25° C. (LasR assay) or 30° C. (RhlR and QscR assays) until positive control wells developed a deep red color (10 min for LasR, 30 min for RhlR, and 60 min for QscR). Dose-response reporter gene assays were performed according to these protocols by using varying concentrations of compound.
With `O=C(Cc1ccc(Cl)c(Cl)c1)N[C@H]1CCOC1=O` [E11], the “Inhibition [%] QsCR” value is 15%.

For `COc1ccc(OCC(=O)N[C@H]2CCOC2=O)cc1` [E17], the “Inhibition [%] QsCR” value was found to be 36%.

For `O=C(Cc1c(F)c(F)c(F)c(F)c1F)N[C@H]1CCOC1=O` [C16], the “Inhibition [%] QsCR” value stood at 74%.

Turning to `O=C(Cc1ccc(Br)cc1)N[C@@H]1CCOC1=O` [B4], the “Inhibition [%] QsCR” value is given as 37%.

As to `Cc1ccc(CC(=O)N[C@H]2CCOC2=O)cc1` [C19], the “Inhibition [%] QsCR” value is on record as 64%.

Turning to `O=C(Cc1ccc(C(F)(F)F)cc1)N[C@H]1CCOC1=O` [C20], the “Inhibition [%] QsCR” value turned out to be 26%.

For the molecule `O=C(Cc1ccc(I)cc1)N[C@H]1CCOC1=O` [C10], the “Inhibition [%] QsCR” value was −79%.

`O=C(Cc1ccc(SC(F)(F)F)cc1)N[C@H]1CCOC1=O` [E8]: the “Inhibition [%] QsCR” value is 40%.

Consider `CSc1ccc(CC(=O)N[C@H]2CCOC2=O)cc1` [E6], for which the “Inhibition [%] QsCR” value is listed as 24%.

As to `CSc1ccc(CCC(=O)N[C@H]2CCOC2=O)cc1` [E34], the “Inhibition [%] QsCR” value is −190%.

Regarding `O=C(Cc1ccc([N+](=O)[O-])cc1)N[C@H]1CCOC1=O` [C13], the “Inhibition [%] QsCR” value is recorded as 14%.

As for `Cc1ccc(OCC(=O)N[C@H]2CCOC2=O)cc1` [E15], the “Inhibition [%] QsCR” value is reported as 33%.

Turning to `O=C(COc1ccc(C(F)(F)F)cc1)N[C@H]1CCOC1=O` [E23], the “Inhibition [%] QsCR” value amounted to 22%.

Regarding `O=C(COc1ccc(Br)cc1)N[C@H]1CCOC1=O` [E21], the “Inhibition [%] QsCR” value came out at 20%.

`O=C(COc1ccc(OC(F)(F)F)cc1)N[C@H]1CCOC1=O` [D15]: the “Inhibition [%] QsCR” value is reported as 4%.

Take `O=C(Cc1ccc2ccccc2c1)N[C@H]1CCOC1=O` [E12]: the “Inhibition [%] QsCR” value came out at 60%.

As to `O=C(CCCC1CCCCC1)N[C@H]1CCOC1=O` [S6], the “Inhibition [%] QsCR” value is on record as 34%.

The next experiment has as its target T2, RhlR (Pseudomonas aeruginosa, UniProt P54292).
T2 construct: expressed in transfected cells; host or cells: E. coli JLD271
Kind of experiment: E. coli reporter gene antagonism assay, RhlR. It is filed as cell-based. The following applies: compounds at 100 mm in the presence of 10 mm BHL; untreated culture = 100%; error ±10%; selected data reproduced from Welsh et al. 2015. On the procedure:
as §1
Consider `O=C(Cc1ccc(Cl)c(Cl)c1)N[C@H]1CCOC1=O` [E11], for which the “Inhibition [%] RhlR” value came to 62%.

As for `COc1ccc(OCC(=O)N[C@H]2CCOC2=O)cc1` [E17], the “Inhibition [%] RhlR” value is 66%.

On to `O=C(Cc1c(F)c(F)c(F)c(F)c1F)N[C@H]1CCOC1=O` [C16], for which the “Inhibition [%] RhlR” value turned out to be 66%.

In the case of `O=C(Cc1ccc(Br)cc1)N[C@@H]1CCOC1=O` [B4], the “Inhibition [%] RhlR” value was 66%.

Turning to `Cc1ccc(CC(=O)N[C@H]2CCOC2=O)cc1` [C19], the “Inhibition [%] RhlR” value worked out at 87%.

Regarding `O=C(Cc1ccc(C(F)(F)F)cc1)N[C@H]1CCOC1=O` [C20], the “Inhibition [%] RhlR” value turned out to be 86%.

In the case of `O=C(Cc1ccc(I)cc1)N[C@H]1CCOC1=O` [C10], the “Inhibition [%] RhlR” value worked out at 84%.

With `O=C(Cc1ccc(SC(F)(F)F)cc1)N[C@H]1CCOC1=O` [E8], the “Inhibition [%] RhlR” value was found to be 65%.

In the case of `CSc1ccc(CC(=O)N[C@H]2CCOC2=O)cc1` [E6], the “Inhibition [%] RhlR” value is given as 78%.

For `CSc1ccc(CCC(=O)N[C@H]2CCOC2=O)cc1` [E34], the “Inhibition [%] RhlR” value was found to be 62%.

Consider `O=C(Cc1ccc([N+](=O)[O-])cc1)N[C@H]1CCOC1=O` [C13], for which the “Inhibition [%] RhlR” value worked out at 60%.

As for `Cc1ccc(OCC(=O)N[C@H]2CCOC2=O)cc1` [E15], the “Inhibition [%] RhlR” value is listed as 75%.

As for `O=C(COc1ccc(C(F)(F)F)cc1)N[C@H]1CCOC1=O` [E23], the “Inhibition [%] RhlR” value was 64%.

As to `O=C(COc1ccc(Br)cc1)N[C@H]1CCOC1=O` [E21], the “Inhibition [%] RhlR” value was 66%.

As to `O=C(COc1ccc(OC(F)(F)F)cc1)N[C@H]1CCOC1=O` [D15], the “Inhibition [%] RhlR” value was 61%.

With `O=C(Cc1ccc2ccccc2c1)N[C@H]1CCOC1=O` [E12], the “Inhibition [%] RhlR” value is 77%.

As for `O=C(CCCC1CCCCC1)N[C@H]1CCOC1=O` [S6], the “Inhibition [%] RhlR” value stood at 69%.

(Values after patent US10322112B2, “Compound combinations for attenuation of bacterial virulence” (priority 2016, dated 2019).)
